Measurements: publication PMC7504360 (International Journal of Molecular Sciences, 2020)
Square brackets hold non-standard residues; d marks the D form. Peptide text beside a SMILES is read from it.

Assays:
[1] = tested on: E. coli K1-infected mice; assay: E. coli K1 septic shock mouse model; type: in vivo
Experimental: For sepsis model, we used E. coli K1 as an infection strain [47], and mice were randomly sorted in to 6 groups (5 mice/group). Control mice received I.P. injection of phosphate buffered saline (PBS, pH = 7.4) whereas Pro10-1 and Pro10-1D were injected with 1 mg/Kg and served as a peptide control. Mice infected with E. coli K1 (6 × 10^6 CFU/mouse, I.P.) served as a sepsis control. For treatment measures, mice were pretreated with 1 mg/kg of the respective peptides for 1 h and then infected with E. coli K1 like the septic mice. After 16 h, mice were euthanized by cervical dislocation under overdose of ether anesthesia. The blood samples, lung, liver, and kidney tissues were excised and processed for biochemical and histological analysis. Briefly, organ lysates of lung, liver, and kidney harvested from ice-cold PBS were evaluated for number of bacterial colonies. Endotoxin levels in the serum contents were quantified according to the kit protocol using Pierce LAL Chromogenic Endotoxin Quantitation Kit (Thermo Fisher Scientific, MA, USA). The levels of AST, ALT, and BUN in serum and the inflammatory cytokine levels in the serum or lung lysates were quantified as described previously.
Lung tissues of the control and an experimental group of mice fixed by paraformaldehyde (4% v/v) were evaluated for histological changes. Briefly, […] lung tissue sections were deparaffinized in xylene, rehydrated with graded ethanol, and then stained with H&E stain. The stained section was examined for neutrophil infiltration and other morbid changes with a light microscope (Eclipse Ni; Nikon, Tokyo, Japan).

[2] = tested on: sheep red blood cells (sRBCs); assay: Hemolytic activity; type: cell-based; details: 100 μM peptide, 4% (v/v) sRBCs in PBS, 1 h at 37 °C, absorbance 405 nm; three measurements averaged
Experimental: The hemolytic activity of all Pro-peptides were tested against sheep red blood cells (sRBCs) as described in previous reports. Fresh sRBCs were washed three times with phosphate-buffered saline (PBS) followed by centrifugation for 5 min at 2500 rpm at 4 °C. Peptides (0.2 to 100 μM) in PBS were incubated with 4% (v/v) sRBCs for 1 h at 37 °C. The contents were then centrifuged for 5 min at 1000 × g. The absorbance of the supernatant at 405 nm was used as a measure of hemolysis, and three times independent measurements were averaged. As a control, 100% hemolysis was obtained by treating sRBCs with melittin.

[3] = tested on: all bacterial strains; assay: Mean MIC over all bacterial strains (GM); type: cell-based; details: mean MIC of all bacterial strains of Table 2
Experimental: Briefly, the microplates were inoculated with two-fold serial dilutions of each peptides in Mueller–Hinton (MH) media and then seeded with log-phase culture of aforementioned bacterial suspensions (2 × 10^5 CFU/mL). The microplates were incubated for 16 h at 37 °C, and absorbance was read at 600 nm using microplate reader SpectraMAX (Molecular Devices, San Jose, CA, USA).

[4] = Calcein leakage assay; details: 4 µM peptide, 3 min after peptide exposure, EYPE/EYPG (7:3, w/w) LUVs, pH 7.4, fluorescence ex 490/em 520 nm; triplicate
Experimental: We investigated the modes of action of the peptides by measuring their abilities to permeate model phospholipid membranes and Escherichia coli. The membrane-permeabilizing ability of the peptides was measured by monitoring the release of fluorescent calcein from liposomes of various compositions. We employed negatively-charged large unilamellar vesicles (LUVs) composed of 7:3 (w/w) egg yolk L-α-phosphatidylethanolamine (EYPE)/egg yolk L-α-phosphatidylglycerol (EYPG) to mimic gram-negative bacterial cells. The percentage of calcein leakage 3 min after peptide exposure was used to assess its ability to permeate the membrane. […] All Pro-peptides induced significant dye release against the negatively charged EYPE/EYPG LUVs, implying that they potently permeate bacterial cell component membranes. […]
Calcein-entrapped LUVs composed of egg yolk phosphatidylethanolamine (EYPE)/egg yolk phosphatidylglycerol EYPG (7:3, w/w) were prepared by vortexing the dried lipid in dye buffer solution (70 mM calcein, 10 mM Tris, 150 mM NaCl, and 0.1 mM Ethylenediaminetetraacetic acid (EDTA), pH 7.4) as described previously. The leakage of calcein from the LUVs was monitored by measuring fluorescence intensity at an excitation wavelength of 490 nm and an emission wavelength of 520 nm on a model RF-5301PC spectrophotometer (Shimadzu, Kyoto, Japan). […]

[5] = tested on: LPS-stimulated RAW264.7 cells; assay: TNF-α release, ELISA; type: cell-based, mouse; details: 25 μM, 1 h pretreatment, LPS 20 ng/mL for 16 h
Experimental: The presence of nitrite in culture media strongly validates the indication of NO production which was assessed by Griess assay. Briefly, RAW264.7 cell (1 × 10^5) were seeded in s 96-well plate in triplicate. Peptides (1, 5, 25, and 50 μM) were pretreated 1 h and then stimulated with 20 ng/mL of LPS purified from E. coli O111:B4 (Sigma-Aldrich, St. Louis, MO, USA) for 16 h. After incubation, equal volumes of culture media and Griess reagent were added and color change was read at 540 nm. The concentration of nitrite content was assessed using a standard curve of sodium nitrite. In addition, release of inflammatory cytokines including TNF-α and IL-6 in the culture media was quantified using an enzyme-linked immunosorbent assays kit (ELISA; R&D Systems, Minneapolis, MN, USA) and the assay was performed according to the kit protocol. The assay was conducted in triplicate, and the concentrations of TNF-α and IL-6 were evaluated by measuring the absorbance at 450 nm using a microplate reader.

[6] = 1 mg/kg I.P. 1 h before E. coli K1 6 × 10^6 CFU/mouse I.P., 16 h, 5 mice/group
[7] = 1 mg/kg I.P. pretreatment, septic mice, ELISA
[8] = 1 mg/kg I.P. pretreatment, E. coli K1-infected mice = 100%

CC[C@@H](C)[C@@H](NC(=O)[C@@H](C)NC(=O)[C@@H](CC(C)C)NC(=O)[C@@H](Cc1c[nH]c2ccccc12)NC(=O)[C@@H](CC(C)C)NC(=O)[C@@H](CCCNC(=N)N)NC(=O)[C@H](N)CCCNC(=N)N)C(=O)N[C@H](Cc1c[nH]c2ccccc12)C(=O)N[C@H](CCCNC(=N)N)C(=O)N[C@H](CCCNC(=N)N)C(N)=O [Pro10-1D] (H-[dR][dR][dL][dW][dL][dA][dI][dW][dR][dR]-NH2; N-terminus assumed)
reduction of the number of bacteria in kidney [1, 6]: ~71%
reduction of the number of bacteria in liver [1, 6]: ~87%
reduction of the number of bacteria in lung [1, 6]: approximately 73%
lung pathological changes (PMN infiltration), H&E histology ([1]; 1 mg/kg I.P. pretreatment, E. coli K1-infected mice): effectively alleviated the pathological changes
suppression of IL-6 level in lung tissue [1, 7]: 62%
suppression of IL-6 level in serum [1, 7]: 56%
suppression of TNF-α level in lung tissue [1, 7]: 51%
suppression of TNF-α level in serum [1, 7]: 45%
reduction of serum endotoxin levels (LAL test) [1, 8]: over 33%
serum ALT level reduced to [1, 8]: 48%
serum AST level reduced to [1, 8]: 26%
serum BUN level reduced to [1, 8]: 37%
hemolysis [2]: no hemolytic activity
GM (geometric mean of MIC values of all bacterial strains) [3]: 4.86 µM
calcein leakage [4]: more than 80%
inhibition of LPS-induced TNF-α level [5]: effective inhibition
